The source made the active and inactive calls. The calls are words filed in the database; no cut-off is given here. Numbered stars: 1 amine (or outer) side, 2 acyl side, 3 side chain; on linkers, the order of the positions; unused ones are H or OH. Square brackets hold non-standard residues; d marks the D form. Peptide text beside a SMILES is read from it. * marks the point of attachment. X2 = CC(C)C[C@H](N)CN(CC(=O)[*:2])[*:1]; X1 = O=S(=O)(c1ccc(I)cc1)*
System: Staphylococcus aureus
Assay: Antimicrobial activity against methicillin resistant Staphylococcus aureus ATCC 33591 infected in skin wound mouse model assessed as reduction in inflammatory infiltration at […] by H and E staining based assay
Format: functional, organism-based
Conditions: dose lower 10.0 mg/kg

SMILES: CC(C)C[C@H](N)CN(CC(=O)N[C@@H](CCCCN)C(=O)N[C@@H](CC(C)C)C(=O)N[C@@H](CC(C)C)C(=O)N[C@@H](CCCCN)C(=O)N[C@@H](CCCCN)C(=O)N[C@@H](CC(C)C)C(=O)N[C@@H](CC(C)C)C(N)=O)S(=O)(=O)c1ccc(I)cc1 (X1-[X2]KLLKKLL-NH2)
- Activity: Active
